Test results reported in patent publication US9119884B2, “LLP2A-bisphosphonate conjugates for osteoporosis treatment” (The Regents of the University of California, priority 2010, dated 2015).

What was measured:
[1] = system: 10-week-old ovariectomized (OVX) mice; assay: Ovariectomized (OVX) mouse model; format: in vivo; conditions: for maximum stress: femur three-point bending; for maximum stress / cortical bone thickness: single IV injection of conjugate or four weeks of PTH
Excerpt: FIG. 21 depicts histomorphometric analyses of the 5th lumbar vertebral bodies after LLP2A-Ale treatment of 10-week-old ovariectomized (OVX) mice, showing increases in osteoblast numbers, activities and bone formation rate/bone surface (BFR/BS) post-treatment. Analyses included trabecular bone area (%), osteoblast surface (Ob/BS), mineralizing surface (MS/BS) activities and BFR/BS (P<0.05).
Representative fluorescent images from the trabecular bone at the 5th LVB (Top panel: white arrowheads illustrate osteoblasts; Bottom panel: yellow arrows illustrate double labeled trabecular bone surfaces).
FIG. 23 depicts histomorphometry analyses of the right mid-femurs included bone formation at the endosteal (Ec) or periosteal (Ps.) bone surfaces, and cortical bone thickness of 10-week-old ovariectomized (OVX) mice. […] Three-point bending was performed on left femurs to obtain maximum stress of the femurs.
Short yellow arrows illustrated double labeled endocortical bone surfaces. (a, p<0.05 versus Sham; b, P<0.05 vs. OVX+PBS, c, P<0.05 vs. OVX+LLP2A; d, P<0.05 vs. OVX+Ale. Data are represented as Mean±SD).

C57BL/6 mice = assay: Guiding GFP-labeled mouse MSCs to bone; format: in vivo; conditions: for osteocalcin levels: 0.9 nmol/mouse I.P. one hour after GFP-MSC I.V.
Experimental: LLP2A-Ale or LLP2A-Ale (1) were dissolved in 0.9% normal saline and injected I.P. to the mice one hour after MSC at a final solution of 0.9 nmol/mouse. Mice were sacrificed either at 3 days or 3 weeks. Osteocalcin, a bone formation marker, was measured at both 3 days and 3 weeks post-treatments. The lumbar vertebral bodies from the 3-day treatment groups were frozen and sectioned with cryostat. The sections were then stained with anti-GFP antibody. The transplanted MSCs were stained in brown.

integrin α4β1 = integrin α4β1 (Homo sapiens, UniProt P05556+P13612); conditions: cited from earlier work
Chain of integrin α4β1 (P13612 34-1032): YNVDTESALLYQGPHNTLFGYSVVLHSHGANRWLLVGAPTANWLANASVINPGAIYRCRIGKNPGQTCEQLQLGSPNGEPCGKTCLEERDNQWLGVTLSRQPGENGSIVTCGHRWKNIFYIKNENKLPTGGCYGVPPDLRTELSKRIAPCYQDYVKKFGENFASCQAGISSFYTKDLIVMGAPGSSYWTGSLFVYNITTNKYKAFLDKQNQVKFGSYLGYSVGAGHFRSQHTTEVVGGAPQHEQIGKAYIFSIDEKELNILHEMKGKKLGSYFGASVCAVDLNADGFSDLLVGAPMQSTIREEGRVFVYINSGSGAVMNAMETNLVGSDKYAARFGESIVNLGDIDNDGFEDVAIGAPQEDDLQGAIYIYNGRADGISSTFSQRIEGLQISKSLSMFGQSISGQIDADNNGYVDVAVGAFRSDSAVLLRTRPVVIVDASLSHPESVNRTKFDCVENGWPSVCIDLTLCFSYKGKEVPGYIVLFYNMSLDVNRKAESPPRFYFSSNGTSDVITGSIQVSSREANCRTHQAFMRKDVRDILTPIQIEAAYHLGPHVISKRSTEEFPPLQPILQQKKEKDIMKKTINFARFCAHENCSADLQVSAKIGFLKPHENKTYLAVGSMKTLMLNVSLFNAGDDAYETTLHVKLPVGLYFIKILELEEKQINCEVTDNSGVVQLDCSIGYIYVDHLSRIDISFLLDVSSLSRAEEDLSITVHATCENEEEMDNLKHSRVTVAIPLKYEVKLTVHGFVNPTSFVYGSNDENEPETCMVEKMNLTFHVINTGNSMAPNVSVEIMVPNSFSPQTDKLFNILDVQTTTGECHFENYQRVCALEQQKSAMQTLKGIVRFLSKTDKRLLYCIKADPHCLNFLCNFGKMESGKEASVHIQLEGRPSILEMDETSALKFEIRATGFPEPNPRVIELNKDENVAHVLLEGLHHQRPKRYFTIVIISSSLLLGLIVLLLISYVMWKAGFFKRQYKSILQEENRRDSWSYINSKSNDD
Chain of integrin α4β1 (P05556 21-798): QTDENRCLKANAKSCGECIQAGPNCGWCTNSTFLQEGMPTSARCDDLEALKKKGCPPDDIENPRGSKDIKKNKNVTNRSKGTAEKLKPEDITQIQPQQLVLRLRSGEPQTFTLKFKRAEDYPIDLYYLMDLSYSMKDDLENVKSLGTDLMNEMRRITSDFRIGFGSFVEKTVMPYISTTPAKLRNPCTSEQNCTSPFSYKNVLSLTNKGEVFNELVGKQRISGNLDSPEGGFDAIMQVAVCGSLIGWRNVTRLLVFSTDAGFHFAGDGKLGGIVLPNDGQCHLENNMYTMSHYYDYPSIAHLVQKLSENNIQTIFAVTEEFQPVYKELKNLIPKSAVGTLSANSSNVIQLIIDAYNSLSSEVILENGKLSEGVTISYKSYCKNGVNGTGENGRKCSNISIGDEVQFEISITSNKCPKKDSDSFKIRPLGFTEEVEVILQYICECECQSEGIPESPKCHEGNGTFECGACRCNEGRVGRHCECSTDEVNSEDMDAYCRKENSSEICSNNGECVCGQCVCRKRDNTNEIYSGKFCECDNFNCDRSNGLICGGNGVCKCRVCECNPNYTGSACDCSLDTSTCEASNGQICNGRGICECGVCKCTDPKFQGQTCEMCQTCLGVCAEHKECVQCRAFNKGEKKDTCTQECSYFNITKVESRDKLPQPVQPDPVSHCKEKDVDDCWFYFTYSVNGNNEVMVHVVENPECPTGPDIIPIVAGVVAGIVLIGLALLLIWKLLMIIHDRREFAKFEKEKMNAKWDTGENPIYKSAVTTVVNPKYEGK

NOD/SCID/MPSVII mice = assay: huMSC transplantation with LLP2A-Ale in immunodeficient mice; format: in vivo, mouse; conditions: vertebral body, three weeks after single injection of huMSC with or without compound
Excerpt: Human MSCs (huMSCs) were obtained and injected together with LLP2A-Ale to immunodeficient mice, NOD/SCID/mucopolysaccharidosis type VII (MPSVII). This mouse strain lacked the β-glucuronidase (GUSB) enzyme. The donor cells could be easily detected using biochemical detection of β-glucuronidase (See Meyerrose, T. E., et al., Stem Cells, 2007. 25(1): p. 220-7; Meyerrose, T. E., et al., Stem Cells, 2008. 26(7): p. 1713-22). At three-month of age, the mice received a single intravenous (i.v.) injection of either vehicle (100 μl PBS/mouse), huMSCs (5×10^5/100 μl/PBS/mouse), huMSCs+LLP2A (5 nM/mouse) or huMSCs+LLP2A-Ale (500 ng/mouse; total compound weight 3.5 μg, with alendronate concentration of 500 ng/mouse). The alendronate dose we used for the study was approximately one-fifth of the therapeutic dose for the treatment of osteoporosis (See Colon-Emeric, C. S., JAMA, 2006, 296(24): p. 2968-9; Ma, Y. L., et al., Endocrinology, 2003. 144(5): p. 2008-15). […] HuMSC, as shown by GUSB+red stain, were only present at the trabecular bone surface in the LLP2A-Ale-treated group (lower panel). There was no demonstrable GUSB activity in the lung, liver, kidney and LVB that received PBS (top panels) or huMSCs (middle panel). Cancellous bone mass in the vertebral body was—more than 40% higher in the group treated with MSC+LLP2A-Ale (cancellous bone volume, BV/TV 13.9±2.2%) compared to PBS (BV/TV 9.4±1.7%), MSC (BV/TV 10.2±1.9%) or MSC+LLP2A (BV/TV 10.5±0.5%) controls three weeks after a single injection of huMSC and LLP2A-Ale.
In FIG. 8, Three-month-old MSPVII mice received a single intravenous injection of either of PBS, huMSC (5×10^5) or huMSC+LLP2A or LLP2A-Ale. The mice were sacrificed 24 hours later. Following sacrifice, small portions of organ including lumbar vertebral bodies (LVB) were harvested and frozen in Optimal Cutting Temperature embedding media. The sections were stained using naphthol-AS-BI-β-Dglucuronide (GUSB) as a substrate. Representative sections from lung, liver, kidney and lumbar vertebral (LVB) trabecular bone regions were presented. […] Isolated GUSB-positive cells were also observed within bone marrow of the LVB in […] group.
The NOD-SCID MPSVII strain was the result of extensive backcrossing of the mutant GUSB allele from the B6.C-H-2^bm1/ByBirgus^mps/+ mouse onto the NOD/LtSz-scid background. Animals were bred and maintained at the Stem Cell Department of the UC Davis Medical Center under approved animal care protocols. Affected animals were generated by breeding mice heterozygous for the MPSVII mutation. Homozygous GUSB-deficient pups were identified at birth by biochemical analysis of toe tissue.
Serum levels of the amino terminal propeptide of type 1 procollagen (P1NP), osteocalcin and C-terminal telopeptides of type I collagen (CTX-I) were measured using mouse sandwich ELISA kits from Biomedical Technologies (Stroughton, Mass.) or Immunodiagnostic System (Fountain Hills, Ariz.). The manufacturer's protocols were followed and all samples were assayed in duplicate. A standard curve was generated from each kit and the absolute concentrations were extrapolated from the standard curve. The coefficients of variations (CVs) for inter-assay and intra-assay measurements were less than 10% for all assays and are similar to the manufacturer's references (Yao, W., et al., Arthritis Rheum, 2008, 58(6): p. 1674-86; Yao, W., et al., Arthritis Rheum, 2008, 58(11): p. 3485-3497).
After fixation in 4% paraformaldehyde, the right distal femurs, mid-femurs and the 5th lumbar vertebral bodies were dehydrated in graded concentrations of ethanol and xylene and embedded un-decalcified in methyl methacrylate. The frontal sections (8 μm thick) were cut using a vertical bed microtome (Leica/Jung 2265) and affixed to slides coated with a 2% gelatin solution. Unstained 8-μm-thick sections were used for assessing fluorochrome labeling and dynamic changes in bone. […]

[2] = system: bone marrow cells undergoing osteogenic differentiation; assay: Rainbow bead cell-binding assay; format: cell-based, mouse; conditions: cells cultured in osteogenic medium for 7 days, incubated with rainbow beads
Experimental: Mouse MSCs were purchased from Invitrogen (Cat#S1502-100), cultured in osteogenic medium for 7 days and incubated with rainbow beads for one hour. […] Original magnification 10× on the right and 20× on the left of the top panel.
A new color-encoding method that facilitates high-throughput screening of OBOC combinatorial libraries was developed. This method differs from the traditional methods used to monitor integrin expressions in the MSCs, i.e., the use of antibody-based fluorescence-activated cell sorting (FACS) or immunoblotting. In the present method, polymer beads displaying chemical compounds or families of compounds were stained with oil-based organic dyes that are used as coding tags. […] These rainbow beads were prepared in a multiplex manner such that each ligand reacted to one or a series of integrins that were coded one color, See FIG. 7 (Luo, J., et al., J Comb Chem, 2008, 10(4): p. 599-604). This rainbow bead technique was then applied to determine the integrin profile on the cell surfaces.
In FIG. 7, bone marrow cells were cultured in osteogenic medium for 7 days and incubated with rainbow beads. The purple beads that coded with LLP2A, the ligand with high affinity and specificity against α4β1, were covered with layers of cells identified by green arrows. […]

129SvJ mice = format: in vivo, mouse

Molecule: NCCCC(O)(P(=O)(O)O)P(=O)(O)O [Ale, Alendronate, reference compound]
- maximum stress [1]: not significantly altered
- cortical bone thickness ([1]; mid-femur): not significantly altered

Molecule: LLP2A-Alendronate (1) [LLP2A-Ale (1)]
- location of transplanted MSCs (anti-GFP staining) (C57BL/6 mice; lumbar vertebral bodies, three days): observed within bone marrow and adjacent to the trabecular bone surfaces
- osteocalcin levels (C57BL/6 mice; three days): significantly increased
- osteocalcin levels (C57BL/6 mice; three weeks): significantly increased

Molecule: LLP2A: bisaryl urea peptidomimetic, highly potent and selective ligand for the activated form of α4β1 integrin [reference compound]
- IC50 (integrin α4β1): 2 pM
- cancellous bone volume, BV/TV (NOD/SCID/MPSVII mice): 10.5±0.5%
- maximum stress [1]: not significantly altered
- cortical bone thickness ([1]; mid-femur): not significantly altered
- cell binding to ligand-coded rainbow beads (affinity) [2]: high affinity
- bone formation rate at endocortical and periosteal surfaces of the mid-femurs (129SvJ mice; four weeks after injections): significantly increased
- proliferating cell populations (BrdU) (129SvJ mice; two days after i.v. injection, lumbar vertebral sections): increased the number of proliferating cell populations within the marrow cavity

B1: PTH: PTH, comparator treatment given for four weeks in OVX mice (peptide, UniProt P01270 32-115, looked up)
Parathyroid hormone: SVSEIQLMHNLGKHLNSMERVEWLRKKLQDVHNFVALGAPLAPRDAGSQRPRKKEDNVLVESHEKSLGEADKADVNVLTKAKSQ
modifications: Parathyroid hormone
- maximum stress [1]: not significantly altered
- endocortical bone formation ([1]; mid-femur, vs OVX): increases
- cortical bone thickness ([1]; mid-femur): not significantly altered
